Drawing on ChEMBL document CHEMBL5537209, “Teleocidin B-4, a PKC Activator, Upregulates Hypoxia-Inducible Factor 1 (HIF-1) Activity by Promoting the Accumulation of HIF-1α Protein via the PKCα/mTORC Signaling Pathway” (J Nat Prod, 2024), this text covers Activity for three compounds.

Common to all, as to format: cell-based
Experiment [1] deals with HeLa S3. Briefly: Activation of HIF-1 in human HeLa S3 cells assessed as increase in VEGF mRNA level at 10 ng/ml preincubated for 1 hr under normoxic condition followed by 6 hrs incubation under hypoxic condition by real-time quantitative PCR analysis. The following applies: filed as activator, time 7.0 hrs.
The subject of experiment [2] is HeLa. Briefly: Activation of HIF-1 transcriptional activity in human HeLa cells transfected with 5xHRE-Luc/UCHL1 reporter at 10 ng/ml pretreated with Go6976 for 1 hr followed by 24 hrs incubation under hypoxic condition by luciferase reporter assay. On the technique in general: In a reporter assay the amount or activity of a reporter protein is the signal.
Experiment [3] deals with HeLa. Briefly: Activation of HIF-1 transcriptional activity in human HeLa cells transfected with 5xHRE-Luc/UCHL1 reporter and PKCalpha siRNA at 10 ng/ml incubated for 24 hrs under hypoxia condition by luciferase reporter assay.
Experiment [4] concerns HeLa S3. Briefly: Activation of HIF-1 in human HeLa S3 cells assessed as increase in HIF-1alpha protein level at 10 ng/ml pretreated with MG132 for 1 hr followed by 12 hrs incubation under normoxic condition by Western blotting analysis. The following applies: filed as activator. (Immunoblotting shows a protein as a band on a membrane.)
In experiment [5] the test system is HeLa S3. Briefly: Activation of HIF-1 in human HeLa S3 cells assessed as increase in HIF-1alpha protein level at 10 ng/ml preincubated for 1 hr under normoxic condition followed by 12 hrs incubation under hypoxic condition by Western blotting analysis. The following applies: filed as activator, time 13.0 hrs.
In experiment [6] the test system is HeLa. Briefly: Activation of HIF-1 transcriptional activity in human HeLa cells transfected with 5xHRE-Luc/UCHL1 reporter and PKCdelta siRNA at 10 ng/ml incubated for 24 hrs under hypoxia condition by luciferase reporter assay. The following applies: filed as activator.
Experiment [7] deals with HeLa S3. Briefly: Activation of HIF-1 transcriptional activity in human HeLa S3 cells transfected with 5xHRE-Luc/UCHL1 reporter and PKCalpha siRNA assessed as upregulation of HIF-1alpha protein level at 10 ng/ml incubated for 12 hrs under hypoxia condition by Western blotting assay.
Experiment [8] relates to HeLa S3. Briefly: Activation of PKCalpha/mTORC pathway in human HeLa S3 cells assessed as accumulation of phosphorylated ribosomal protein S6 at 10 ng/ml incubated for 12 hrs under hypoxia condition by Western blotting analysis. The following applies: filed as activator.
Experiment [9] concerns HeLa S3. Briefly: Activation of PKCdelta/mTORC pathway in human HeLa S3 cells transfected with PKCdelta siRNA assessed as accumulation of phosphorylated ribosomal protein S6 at 10 ng/ml incubated for 12 hrs under hypoxia condition by Western blotting analysis. The following applies: filed as activator.
The test system of experiment [10] is HeLa. Briefly: Activation of HIF-1 transcriptional activity in human HeLa cells transfected with 5xHRE-Luc/UCHL1 reporter at 0.1 to 1000 ng/ml preincubated for 1 hr under normoxic condition followed by 24 hrs incubation under hypoxic condition by luciferase reporter assay. The following applies: filed as activator, dose 0.1-1000 ng/ml, time 25.0 hrs.
The test system of experiment [11] is HeLa S3. Briefly: Activation of PKCalpha/mTORC pathway in human HeLa S3 cells transfected with PKCalpha siRNA assessed as accumulation of phosphorylated ribosomal protein S6 at 10 ng/ml incubated for 12 hrs under hypoxia condition by Western blotting analysis.
Experiment [12] relates to HeLa. Briefly: Activation of HIF-1 transcriptional activity in human HeLa cells transfected with 5xHRE-Luc/UCHL1 reporter at 0.1 to 100 ng/ml pretreated with Go6983 for 1 hr followed by 24 hrs incubation under hypoxic condition by luciferase reporter assay. The following applies: dose 0.1-100 ng/ml.
Experiment [13] deals with HeLa S3. Briefly: Activation of HIF-1 in human HeLa S3 cells assessed as increase in VEGF mRNA level at 0.1 to 10 ng/ml preincubated for 1 hr under normoxic condition followed by 6 hrs incubation under hypoxic condition by real-time quantitative PCR analysis. The settings on record: filed as activator, dose 0.1-10 ng/ml, time 7.0 hrs.
Experiment [14] relates to HeLa. Briefly: Activation of HIF-1 transcriptional activity in human HeLa cells transfected with 5xHRE-Luc/UCHL1 reporter at 10 ng/ml pretreated with torin1 for 1 hr followed by 24 hrs incubation under hypoxia condition by luciferase reporter assay.
In experiment [15] the test system is HeLa S3. Briefly: Activation of HIF-1 in human HeLa S3 cells assessed as increase in HIF-1alpha protein level at 10 ng/ml pretreated with Go6983 for 1 hr followed by 12 hrs incubation under hypoxic condition by Western blotting analysis.
In experiment [16] the test system is HeLa S3. Briefly: Activation of HIF-1 in human HeLa S3 cells assessed as increase in HIF-1alpha protein level at 0.1 to 10 ng/ml preincubated for 1 hr under normoxic condition followed by 12 hrs incubation under hypoxic condition by Western blotting analysis. The settings on record: filed as activator, dose 0.1-10 ng/ml, time 13.0 hrs.
Experiment [17] concerns HeLa S3. Briefly: Activation of HIF-1 in human HeLa S3 cells assessed as increase in VEGF mRNA level at 10 ng/ml pretreated with Go6983 for 1 hr followed by 6 hrs incubation under hypoxic condition by real-time quantitative PCR analysis.
In experiment [18] the test system is HeLa. Briefly: Activation of HIF-1 transcriptional activity in human HeLa cells transfected with 5xHRE-Luc/UCHL1 reporter at 0.1 to 10 uM preincubated for 1 hr under normoxic condition followed by 24 hrs incubation under hypoxic condition by luciferase reporter assay. The settings on record: filed as activator, dose 0.1-10 µM, time 25.0 hrs.

The source made the active and inactive calls. No cut-off for these calls is given here.

Take `CCCCCCCCCCCCCC(=O)O[C@@H]1[C@@H](C)[C@@]2(O)[C@@H](C=C(CO)C[C@]3(O)C(=O)C(C)=C[C@@H]23)[C@@H]2C(C)(C)[C@]12OC(C)=O`: the result in the experiment with HeLa S3 [1], in the experiment on HeLa S3 [4], with HeLa S3 [5], in the experiment on HeLa [6], with HeLa S3 [8] and in the experiment on HeLa S3 [9] was Active. Also, the result in the experiment on HeLa [10] was Active. Besides, the result in the experiment on HeLa [2], in the experiment with HeLa [3], in the experiment with HeLa S3 [7] and in the experiment on HeLa S3 [11] was inactive.
`C=C[C@@]1(C)CC[C@](C)(C(C)C)c2cc3c4c(c[nH]c4c21)C[C@@H](CO)NC(=O)[C@H](C(C)C)N3C`: the outcome in the experiment on HeLa [12], in the experiment on HeLa [2], in the experiment on HeLa [14], in the experiment with HeLa [3], in the experiment with HeLa S3 [15] and in the experiment on HeLa S3 [7] was inactive. The outcome in the experiment on HeLa S3 [17] and in the experiment with HeLa S3 [11] was inactive. Further, the result in the experiment with HeLa S3 [13], with HeLa S3 [4], in the experiment with HeLa [6], with HeLa S3 [16], in the experiment on HeLa S3 [8] and with HeLa S3 [9] was Active. Also, the outcome in the experiment on HeLa [10] was Active.
On to `C[C@H]1[C@@H]2C[C@@]3(O[C@H](CCC3(C)C)CC(=O)O[C@@H](CO)CC(=O)O2)O[C@@H]1CCCCc1cccc(O)c1`, for which the result in the experiment with HeLa [18] was Active.
